Data reported in ChEMBL document CHEMBL5257089, “Gamabufotalin Induces Apoptosis and Cytoprotective Autophagy through the mTOR Signaling Pathway in Hepatocellular Carcinoma” (J Nat Prod, 2023).
Calls of active or inactive are those of the source. The calls are words filed in the database; no cut-off is given here.

Tests used:
[1] = test system: Hep 3B2; assay: Induction of apoptosis in human Hep3B cells assessed as viable cells at 10 nM incubated for 48 hrs in presence of gamabufotalin by Annexin V-FITC/PI staining based flow cytometry method (reference value: 94.0%); type: functional; conditions: read-out: Activity
[2] = test system: Hep 3B2; assay: Induction of autophagic flux in human Hep3B cells assessed as rescue of p62 at 10 uM incubated for 48 hrs in presence of gamabufotalin by Western blot analysis; type: functional, cell-based
[3] = test system: Huh-7; assay: Induction of apoptosis in human Huh-7 cells assessed as decrease in bcl-2 level at 10 nM incubated for 48 hrs in presence of gamabufotalin by immunoblot analysis; type: functional, cell-based
[4] = test system: Hep 3B2; assay: Induction of apoptosis in human Hep3B cells assessed as late apoptotic cells at 10 nM incubated for 48 hrs by Annexin V-FITC/PI staining based flow cytometry method (reference value: 3.5%); type: functional
[5] = test system: Hep 3B2; assay: Induction of autophagic flux in human Hep3B cells assessed as rescue of LC3-II accumulation at 10 uM incubated for 48 hrs in presence of gamabufotalin by Western blot analysis; type: functional, cell-based
[6] = test system: Hep 3B2; assay: Induction of apoptosis in human Hep3B cells assessed as increase in bax level at 10 nM incubated for 48 hrs in presence of gamabufotalin by immunoblot analysis; type: functional, cell-based
[7] = test system: Hep 3B2; assay: Induction of apoptosis in human Hep3B cells assessed as early apoptotic cells at 10 nM incubated for 48 hrs by Annexin V-FITC/PI staining based flow cytometry method (reference value: 1.3%); type: functional
[8] = test system: Hep 3B2; assay: Induction of apoptosis in human Hep3B cells assessed as viable cells at 25 nM incubated for 48 hrs by Annexin V-FITC/PI staining based flow cytometry method (Rvb =95.7%); type: functional; conditions: read-out: Activity
[9] = test system: Hep 3B2; assay: Induction of apoptosis in human Hep3B cells assessed as viable cells at 25 nM incubated for 48 hrs in presence of 4,6-dimorpholino-N-(4-nitrophenyl)-1,3,5-triazin-2-amine by Annexin V-FITC/PI staining based flow cytometry method (Rvb =95.7%); type: functional; conditions: read-out: Activity
[10] = test system: Huh-7; assay: Induction of apoptosis in human Huh-7 cells assessed as necrotic cells at 25 nM incubated for 48 hrs in presence of chloroquine by Annexin V-FITC/PI staining based flow cytometry method (reference value: 1.0%); type: functional
[11] = test system: Huh-7; assay: Induction of apoptosis in human Huh-7 cells assessed as […] in Bax level at upto 25 nM incubated for 48 hrs by Western blot analysis; type: functional, cell-based
[12] = test system: Hep 3B2; assay: Induction of autophagic flux in human Hep3B cells assessed as increase in LC3-I expression at upto 25 nM incubated for 48 hrs by Western blot analysis; type: functional, cell-based
[13] = Toxicity in mouse assessed as effect on spleen at 5 mg/kg,ip administered every second day for 3 weeks by H and E staining based microscopic method; type: organism-based; conditions: in vivo, 504 h
[14] = test system: Hep 3B2; assay: Induction of morphological changes in human Hep3B cells assessed as round cell morphology at upto 25 nM incubated for 48 hrs by bright field imaging analysis; type: functional, cell-based
[15] = test system: Huh-7; assay: Induction of apoptosis in human Huh-7 cells assessed as late apoptotic cells at 20 nM incubated for 48 hrs by Annexin V-FITC/PI staining based flow cytometry method (reference value: 2.2%); type: functional
[16] = test system: Hep 3B2; assay: Induction of apoptosis in human Hep3B cells assessed as early apoptotic cells at 15 nM incubated for 48 hrs by Annexin V-FITC/PI staining based flow cytometry method (reference value: 3.9%); type: functional
[17] = test system: Huh-7; assay: Induction of apoptosis in human Huh-7 cells assessed as reduction in bcl-2 level […] incubated for 48 hrs in presence of 4,6-dimorpholino-N-(4-nitrophenyl)-1,3,5-triazin-2-amine by immunoblot analysis; type: functional, cell-based
[18] = test system: Huh-7; assay: Induction of apoptosis in human Huh-7 cells assessed as early apoptotic cells at 25 nM incubated for 48 hrs by Annexin V-FITC/PI staining based flow cytometry method (reference value: 4.3%); type: functional
[19] = test system: Hep 3B2; assay: Induction of apoptosis in human Hep3B cells assessed as early apoptotic cells at 25 nM incubated for 48 hrs by Annexin V-FITC/PI staining based flow cytometry method (reference value: 3.9%); type: functional
[20] = test system: Hep 3B2; assay: Antitumor activity against human Hep3B cells xenografted in nude mouse model assessed as downregulation of Bcl-2 expression at 5 mg/kg,ip administered every second day for 3 weeks by Western blot analysis; type: functional, organism-based
[21] = test system: Hep 3B2; assay: Induction of apoptosis in human Hep3B cells assessed as fragmented nuclei at […] incubated for 48 hrs by Hoechst33258 staining based fluorescence microscopy; type: functional, cell-based
[22] = test system: Huh-7; assay: Induction of apoptosis in human Huh-7 cells assessed as early apoptotic cells at 25 nM incubated for 48 hrs by Annexin V-FITC/PI staining based flow cytometry method (reference value: 1.7%); type: functional
[23] = test system: Hep 3B2; assay: Induction of apoptosis in human Hep3B cells assessed as viable cells at 25 nM incubated for 48 hrs in presence of chloroquine by Annexin V-FITC/PI staining based flow cytometry method (reference value: 94.0%); type: functional; conditions: read-out: Activity
[24] = test system: Huh-7; assay: Induction of apoptosis in human Huh-7 cells assessed as upregulation of cleaved caspase-3 level […] incubated for 48 hrs in presence of 4,6-dimorpholino-N-(4-nitrophenyl)-1,3,5-triazin-2-amine by immunoblot analysis; type: functional, cell-based
[25] = test system: Huh-7; assay: Induction of autophagy in human Huh-7 cells assessed as reduction in ULK1 phosphorylation level incubated for 48 hrs by immunoblot method; type: functional, cell-based; conditions: dose 0-25 nM
[26] = test system: Huh-7; assay: Induction of apoptosis in human Huh-7 cells assessed as late apoptotic cells at 25 nM measured after 48 hrs in presence of z-VAD-FMK by annexin V-FITC/Propidium iodide staining based flow cytometric analysis (reference value: 6.1%); type: functional
[27] = test system: Huh-7; assay: Induction of apoptosis in human Huh-7 cells assessed as increase in Bcl-2 expression at upto 25 nM incubated for 48 hrs by Western blot analysis; type: functional, cell-based
[28] = test system: Huh-7; assay: Induction of autophagy in human Huh-7 cells harbouring mCherry-egfp-LC3 assessed as reduction in red puncta ratio at 25 nM incubated for 15 mins in presence of 4,6-dimorpholino-N-(4-nitrophenyl)-1,3,5-triazin-2-amine by laser scanning confocal microscopic analysis; type: functional, cell-based
[29] = test system: Huh-7; assay: Induction of apoptosis in human Huh-7 cells assessed as late apoptotic cells at 25 nM incubated for 48 hrs by Annexin V-FITC/PI staining based flow cytometry method (reference value: 3.8%); type: functional
[30] = test system: Hep 3B2; assay: Induction of autophagic flux in human Hep3B cells assessed as rescue of p62 at 25 uM incubated for 48 hrs in presence of chloroquine by Western blot analysis; type: functional, cell-based
[31] = test system: Hep 3B2; assay: Induction of apoptosis in human Hep3B cells assessed as necrotic cells at 25 nM incubated for 48 hrs by Annexin V-FITC/PI staining based flow cytometry method (reference value: 0.2%); type: functional
[32] = test system: Hep 3B2; assay: Induction of apoptosis in human Hep3B cells assessed as early apoptotic cells at 25 nM measured after 48 hrs by Annexin V-FITC/PI staining based flow cytometry method (reference value: 1.3%); type: functional
[33] = test system: Huh-7; assay: Induction of apoptosis in human Huh-7 cells assessed as early apoptotic cells at 25 nM measured after 48 hrs by annexin V-FITC/Propidium iodide staining based flow cytometric analysis (reference value: 2.2%); type: functional

CCN(CC)CCCC(C)Nc1ccnc2cc(Cl)ccc12 (stereo not drawn) [CHLOROQUINE]
viability at 0.01 µM [1]: 63.9%
Activity [2]: Active
Activity [3]: Active
Activity [4]: 4.4%
Activity [5]: Active
Activity [6]: Active
Activity [7]: 1.5%

C[C@]12CC[C@H](O)C[C@H]1CC[C@@H]1[C@@H]2[C@H](O)C[C@]2(C)[C@@H](c3ccc(=O)oc3)CC[C@]12O [GAMABUFOTALIN]
viability at 0.025 µM [8]: 77.2%
viability at 0.025 µM [9]: 67.2%
Activity [10]: 3.4%
Activity [11]: Active
Activity [12]: Active
Activity [13]: Non-Toxic
Activity [14]: Active
Activity [15]: 28.8%
Activity [16]: 6.8%
Activity [17]: Active
Activity [18]: 8.7%
Activity [19]: 9.3%
Activity [20]: Active
Activity [21]: Active
Activity [22]: 5.6%
viability at 0.025 µM [23]: 63.9%
Activity [24]: Active
Activity [25]: Dose-Dependent Effect
Activity [26]: 7.4%
Activity [27]: Active
Activity [28]: Active
Activity [29]: 7.7%
Activity [30]: Active
Activity [31]: 0.6%
Activity [32]: 11.4%
Activity [33]: 6.6%
